Tests used:
[1] = system: K1 strain, a drug resistant strain of Plasmodium falciparum; assay: In vitro antimalarial assay (p-LDH, Malstat), K1 strain; assay type: cell-based; details: P. falciparum K1 (drug resistant), 72 h culture, p-LDH readout, read-out: Antimalarial activity (IC50 value), Strain K1
Outline: (§1)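 IC50 derived from concentration-response of parasite lactate dehydrogenase signal (Malstat reagent, NBT/PES formazan at 655 nm) after freeze-thaw lysis. Infected erythrocytes (hematocrit 2%, parasitaemia 0.5 or 1%) exposed 72 h to 12.5–0.0001 μM final compound under 3% O2-4% CO2-93% N2, FCR3 and K1 alike.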

[2] = system: FCR3 strain, a drug sensitive strain of Plasmodium falciparum; assay: In vitro antimalarial assay (p-LDH, Malstat), FCR3 strain; assay type: cell-based; details: P. falciparum FCR3 (drug sensitive), 72 h culture, p-LDH readout, read-out: Antimalarial activity (IC50 value), Strain FCR3
Outline: as §1

IC50 [1] | IC50 [2] | SMILES
< 0.1 µM | < 0.1 µM | CC(C)Oc1ccc(Nc2nc(Nc3ccn4ccnc4c3)cc(N3CCOCC3)n2)cn1 [Example 15, N4-(Imidazo[1,2-a]pyridin-7-yl)-N2-(6-isopropoxypyridin-3-yl)-6-morpholinopyrimidine-2,4-diamine]
1 to 10 µM | 1 to 10 µM | Cc1ccc(Nc2nc(N)cc(Nc3ccn4ccnc4c3)n2)cn1 [Example 85, N4-(imidazo[1,2-a]pyridin-7-yl)-N2-(6-methylpyridin-3-yl) pyrimidine-2,4,6-triamine]
< 0.1 µM | < 0.1 µM | CCc1ccnc(Nc2nc(Nc3ccn4ccnc4c3)cc(N3CC[C@@H](N(C)C)C3)n2)c1 [Example 125, (R)-6-(3-(dimethylamino)pyrrolidin-1-yl)-N2-(4-ethylpyridin-2-yl)-N4-(imidazo[1,2-a]pyridin-7-yl)pyrimidine-2,4-diamine]
0.1 to 1 µM | < 0.1 µM | FC(F)(F)c1ccnc(Nc2nc(Nc3ccn4ccnc4c3)cc(N3CCOCC3)n2)c1 [Example 47, N4-(imidazo[1,2-a]pyridin-7-yl)-6-morpholino-N2-(4-(trifluoromethyl)pyridin-2-yl) pyrimidine-2,4-diamine]
< 0.1 µM | < 0.1 µM | Cc1ccc(Nc2nc(N)cc(Nc3ccn4ccnc4c3)n2)nc1 [Example 44]
< 0.1 µM | < 0.1 µM | COC1CCN(c2cc(Nc3ccn4ccnc4c3)nc(Nc3cc(C)cc(C)n3)n2)CC1 [Example 131, N2-(4,6-dimethylpyridin-2-yl)-N4-(imidazo[1,2-a]pyridin-7-yl)-6-(4-methoxypiperidin-1-yl)pyrimidine-2,4-diamine]
0.1 to 1 µM | < 0.1 µM | Cc1cccnc1Nc1nc(Nc2ccn3ccnc3c2)cc(N2CCOCC2)n1 [Example 9, N4-(Imidazo[1,2-a]pyridin-7-yl)-N2-(3-methylpyridin-2-yl)-6-morpholinopyrimidine-2,4-diamine]
0.1 to 1 µM | 0.1 to 1 µM | Fc1ccnc(Nc2nc(Nc3ccn4ccnc4c3)cc(N3CCOCC3)n2)c1 [Example 21, N2-(4-Fluoropyridin-2-yl)-N4-(imidazo[1,2-a]pyridin-7-yl)-6-morpholinopyrimidine-2,4-diamine]
0.1 to 1 µM | 0.1 to 1 µM | CC(C)(C)c1cccc(Nc2nc(Nc3ccn4ccnc4c3)cc(N3CCOCC3)n2)n1 [Example 124, N2-(6-(tert-butyl)pyridin-2-yl)-N4-(imidazo[1,2-a]pyridin-7-yl)-6-morpholinopyrimidine-2,4-diamine]
1 to 10 µM | 0.1 to 1 µM | COc1ccncc1Nc1nc(Nc2ccn3ccnc3c2)cc(N2CCOCC2)n1 [Example 23, N4-(Imidazo[1,2-a]pyridin-7-yl)-N2-(4-methoxypyridin-3-yl)-6-morpholinopyrimidine-2,4-diamine]
0.1 to 1 µM | < 0.1 µM | CN1CCC(Oc2ccc(Nc3nc(Nc4ccn5ccnc5c4)cc(N4CCOCC4)n3)cn2)CC1 [Example 89, N4-(imidazo[1,2-a]pyridin-7-yl)-N2-(6-((1-methylpiperidin-4-yl)oxy)pyridin-3-yl)-6-morpholinopyrimidine-2,4-diamine]
< 0.1 µM | < 0.1 µM | Cc1cc(C)nc(Nc2nc(Nc3ccn4ccnc4c3)cc(N3CCC(O)CC3)n2)c1 [Example 130, 1-(2-((4,6-dimethylpyridin-2-yl)amino)-6-(imidazo[1,2-a]pyridin-7-ylamino)pyrimidin-4-yl)piperidin-4-ol]
0.1 to 1 µM | 0.1 to 1 µM | Cc1cc(Nc2nc(Nc3ccn4ccnc4c3)cc(N3CCCCC3)n2)ncc1F [Example 204, N2-(5-fluoro-4-methylpyridin-2-yl)-N4-(imidazo[1,2-a]pyridin-7-yl)-6-(piperidin-1-yl) pyrimidine-2,4-diamine]
0.1 to 1 µM | 0.1 to 1 µM | COc1cc(CF)nc(Nc2nc(Nc3ccn4ccnc4c3)cc(N3CCCCC3)n2)c1 [Example 191, N2-(6-(fluoromethyl)-4-methoxypyridin-2-yl)-N4-(imidazo [1,2-a]pyridin-7-yl)-6-(piperidin-1-yl)pyrimidine-2,4-diamine]
0.1 to 1 µM | 0.1 to 1 µM | Cc1cc(C)nc(Nc2nc(Nc3ccn4ccnc4c3)cc(N3CCC(C)(C)CC3)n2)c1 [Example 182, 6-(4,4-dimethylpiperidin-1-yl)-N2-(4,6-dimethylpyridin-2-yl)-N4-(imidazo[1,2-a]pyridine-7-yl)pyrimidine-2,4-diamine]
1 to 10 µM | 0.1 to 1 µM | CCc1ccnc(Nc2nc(Nc3ccn4ccnc4c3)cc(N3CCN(C)[C@@H](C)C3)n2)c1 [Example 101, (S)-6-(3,4-dimethylpiperazin-1-yl)-N2-(4-ethylpyridin-2-yl)-N4-(imidazo[1,2-a]pyridin-7-yl)pyrimidine-2,4-diamine]
< 0.1 µM | < 0.1 µM | CCOCCc1cccc(Nc2nc(Nc3ccn4ccnc4c3)cc(N3CCCC3)n2)n1 [Example 160, N2-[6-(2-ethoxyethyl)pyridin-2-yl]-N4-(imidazo[1,2-a]pyridin-7-yl)-6-(pyrrolidin-1-yl) pyrimidine-2,4-diamine]
0.1 to 1 µM | < 0.1 µM | c1ccc(COc2ccc(Nc3nc(Nc4ccn5ccnc5c4)cc(N4CCOCC4)n3)cn2)cc1 [Example 91, N2-(6-(benzyloxy)pyridin-3-yl)-N4-(imidazo[1,2-a]pyridin-7-yl)-6-morpholinopyrimidine-2,4-diamine]
< 0.1 µM | < 0.1 µM | CCc1cc(C)cc(Nc2nc(Nc3ccn4ccnc4c3)cc(N3CCCCC3)n2)n1 [Example 189, N2-(6-ethyl-4-methylpyridin-2-yl)-N4-(imidazo[1,2-a]pyridin-7-yl)-6-(piperidin-1-yl)pyrimidine-2,4-diamine]
1 to 10 µM | 0.1 to 1 µM | CCc1ccnc(Nc2nc(Nc3ccn4ccnc4c3)cc(N3CCN(C)[C@H](C)C3)n2)c1 [Example 104, (R)-6-(3,4-dimethylpiperazin-1-yl)-N2-(4-ethylpyridin-2yl)-N4-(imidazo[1,2-a]pyridin-7-yl)pyrimidine-2,4-diamine]
0.1 to 1 µM | 0.1 to 1 µM | CCc1ccnc(Nc2nc(Nc3ccn4ccnc4c3)cc(N3CCC4(CCCC4)C3)n2)c1 [Example 208, N2-(4-ethylpyridin-2-yl)-N4-(imidazo[1,2-a]pyridin-7-yl)-6-(2-azaspiro[4.4]nonan-2-yl) pyrimidine-2,4-diamine]
1 to 10 µM | 1 to 10 µM | CCOc1cc(Nc2ccn3ccnc3c2)nc(Nc2cc(C)ccn2)n1 [Example 36, 6-ethoxy-N4-(imidazo[1,2-a]pyridin-7-yl)-N2-(4-methylpyridin-2-yl) pyrimidine-2,4-diamine]
1 to 10 µM | 0.1 to 1 µM | Cc1ccc(Nc2nc(Nc3ccn4ccnc4c3)cc(N(C)C)n2)cn1 [Example 83, N4-(imidazo[1,2-a]pyridin-7-yl)-N6,N6-dimethyl-N2-(6-methylpyridin-3-yl)pyrimidine-2,4,6-triamine]

SMILES | IC50 [1] | IC50 [2]
c1cn2ccc(Nc3cc(N4CCOCC4)nc(Nc4ccc(OC5CCC5)nc4)n3)cc2n1 [Example 80, N2-(6-cyclobutoxypyridin-3-yl)-N4-(imidazo[1,2-a]pyridin-7-yl)-6-morpholinopyrimidine-2,4-diamine] | 0.1 to 1 µM | 0.1 to 1 µM
